Data as given in PMC6272869, “Simultaneous Determination of Multiple Components in Guanjiekang in Rat Plasma via the UPLC–MS/MS Method and Its Application in Pharmacokinetic Study” (Molecules, 2016).
Where two headings read alike, the source gives them in different places.

What was measured:
[1] = Pharmacokinetic study in rats after single oral administration of GJK (UPLC-MS/MS of plasma); format: in vivo, Sprague–Dawley rats; details: single oral GJK 24 g/kg; for Tmax / AUC(0-inf) / half-life / Cmax / MRT last / AUC(0-t): Sprague-Dawley; for Tmax: rat, po, 24 g/kg, read-out: Tmax (time to reach peak concentration) (converted); for Tmax / Tmax (time to reach peak concentration): n = 6, median (minimum, maximum); for AUC(0-inf) / half-life / Cmax / MRT last / AUC(0-t) / Tmax (time to reach peak concentration): rat plasma; for AUC(0-inf): n = 6, AUC0–t extrapolated to infinity; for AUC(0-inf) / AUC(0-t): mean ± S.D.; for half-life / Cmax / MRT last: n = 6, mean ± S.D.; for half-life: non-compartmental, read-out: T1/2z (terminal elimination half-life); for Cmax: read-out: Cmax (maximum plasma concentration); for MRT last: read-out: MRT0–t (mean residence time) (converted); for AUC(0-t): n = 6, zero to last sampling time
Procedure: Chromatographic analyses were performed using an Agilent 1290 series UPLC system (Agilent Technologies, Santa Clara, CA, USA) equipped with a binary pump, an online degasser, an auto plate sampler, and a thermostatically controlled column compartment. The determination was carried out at 30 °C on a Waters Acquity UPLC C18 column (100 mm × 2.1 mm, […], Waters, Milford, MA, USA). The mobile phase consisted of 0.1% formic acid (A) and acetonitrile (B) using a gradient elution of 10%–34% B at 0–6 min, 34%–80% B at 6–10 min, 80% B at 10–12 min, 10% B at 12–15 min, and the re-equilibration time of gradient elution was 1 min. The sample injection volume was 5 µL, and the flow rate was 0.35 mL/min. The MS detection was performed using an Agilent 6460 Triple Quadrupole MS (Agilent Technologies) equipped with an electrospray ionization (ESI) source. […] Other parameters were as follows: drying gas (N2) flow rate, 11.0 L/min.
Plasma samples (50 µL) were thawed on ice and mixed with 200 µL of IS (20.0 ng/mL) via vortexing for 1 min. Then, the mixture was centrifuged at 13,500 rpm for 15 min to separate the precipitated protein at 4 °C. The supernatant was transferred into a clean Eppendorf tube and evaporated to dryness under a stream of nitrogen. The residues were reconstituted with 50 µL of water–methanol (50:50, v/v), vortexed and centrifuged at 13,500 rpm for 15 min. Then, the supernatants were injected into the UPLC–MS/MS for analysis.
Sprague–Dawley rats (200–250 g) were obtained from the Center of the Chinese University of Hong Kong and were kept in an environmentally controlled room (temperature: 25 ± 2 °C, humidity: 50% ± 5%, 12 h dark-light cycle) for at least 7 days before the experiments. Prior to the experiments, the animals were fasted for 24 h with water ad libitum. All protocols of animal experiments were approved in accordance with the regulations of the Experimental Animal Administration issued by the Macau University of Science and Technology.
The blood samples (100 µL) were individually collected from the caudal vein into heparinized tubes before administration, and 5, 10, 15, 30, 45, 60, 90, 120, 240, 360, 480, 720 and 1440 min after administration, and then immediately centrifuged at 4500 rpm for 15 min. […] The main PK parameters, including the maximum plasma concentration (Cmax), time to reach Cmax (Tmax), half-life time (T1/2), area under the curve (AUC 0–t and AUC 0–∞) and mean residence time (MRT), were calculated via the non-compartment model using the pharmacokinetic software, PK Solutions 2.0 (Summit Co., Montrose, CO, USA).

[2] = Stability of the analytes in rat plasma under different storage conditions (QC samples); format: in vitro ADME; details: n = 3; for Remaining (%) / remaining at 4 h / remaining at 360 h: rat plasma; for Remaining (%): freeze–thaw cycles (three); for remaining at 24 h / remaining at 4 h / remaining at 360 h: rat; for remaining at 24 h: extracted plasma QC samples in auto-sampler, 4 °C for 24 h; for remaining at 4 h: 25 °C for 4 h; for remaining at 360 h: at −70 °C for 15 days
Procedure: The stability of the seven compounds in rat plasma was assessed by analyzing the QC samples at three concentrations under different sample storage conditions and processing procedures. Short-term stability was assessed by analyzing the QC samples that were kept at room temperature for 4 h, which exceeded the routine sample preparation time. […] Freeze-thaw stability was investigated after three freeze (−40 °C) and thaw (room temperature) cycles. Post-preparation stability was assessed by analyzing the extracted QC samples that were kept in the auto-sampler at 4 °C for […]. All stability testing QC samples were evaluated using the calibration curve of the freshly prepared samples.

[3] = tested on: phosphorylation of ERK, JNK, IKK stimulated by TNF-α; design: method as in PMID 23978582; details: cited from earlier work
[4] = tested on: ages-induced mesangial cell damage; design: method as in PMID 23881455; details: in vitro; read-out: IC50 of antioxidative and anti-inflammatory activities; cited from earlier work
[5] = tested on: NLRP3-dependent interleukin (IL)-1β production; design: method as in PMID 25210146; details: cited from earlier work
[6] = tested on: toll-like receptor 4 (TLR4)/MD2 complex; design: method as in PMID 22422925; details: cited from earlier work
[7] = tested on: NLRP3-activated ASC oligomerization; design: method as in PMID 25210146; details: cited from earlier work
[8] = plasma, medium QC concentration

| SMILES | Tmax ([1]; plasma) | Tmax (time to reach peak concentration) [1] | Remaining (%) ([2]; high QC concentration) | Remaining (%) ([2]; low QC concentration) | Remaining (%) ([2]; medium QC concentration) | remaining at 4 h ([2]; plasma, high QC concentration) | remaining at 4 h ([2]; plasma, low QC concentration) | remaining at 4 h [2, 8] | remaining at 360 h ([2]; plasma, high QC concentration) | remaining at 360 h ([2]; plasma, low QC concentration) | remaining at 360 h [2, 8] | AUC(0-inf) ([1]; in vivo) | half-life ([1]; in vivo) | Cmax ([1]; in vivo) | MRT last ([1]; in vivo) | AUC(0-t) ([1]; in vivo) | Tmax ([1]; in vivo) | remaining at 24 h ([2]; plasma, high QC concentration) | remaining at 24 h ([2]; plasma, low QC concentration) | remaining at 24 h [2, 8] | other results |
| --- | --- | --- | --- | --- | --- | --- | --- | --- | --- | --- | --- | --- | --- | --- | --- | --- | --- | --- | --- | --- | --- |
| COc1ccc(-c2coc3cc(O[C@@H]4O[C@H](CO)[C@@H](O)[C@H](O)[C@H]4O)ccc3c2=O)cc1O [Calycosin-7-glucoside, calycosin-7-glucoside] | < 0.767 h | 45 (45, 60) min | 107.4% | 108.1% | 107.3% | 103% | 106% | 96% | 102% | 108% | 94.3% |  |  |  |  |  |  |  |  |  | AUC(0-inf) [1]: 79.3 ng·h/mL; half-life [1]: 4.43 ± 0.733 h; Cmax [1]: 52.2 ± 14.8 ng/mL; MRT last [1]: 2.17 h; AUC(0-t) [1]: 77.4 ng·h/mL; remaining at 24 h ([2]; high QC concentration): 103%; remaining at 24 h ([2]; low QC concentration): 104%; remaining at 24 h ([2]; medium QC concentration): 104% |
| COc1cc2c(cc1OC)[C@@H]1Cc3ccc(OC)c(OC)c3CN1CC2 [Tetrahydropalmatine, tetrahydropalmatine] |  | 180 (180, 180) min | 108.1% | 89.9% | 107.4% | 102% | 103% | 101% | 103% | 104% | 103% | 184 ng·h/mL | 5.17 ± 0.9 h | 42 ± 13.4 ng/mL | 8.2 h | 170 ng·h/mL | 3.15 h | 101% | 105% | 98.4% |  |
| C[C@@]12C[C@@]3(O)O[C@@H](O1)[C@]1(COC(=O)c4ccccc4)[C@H]3C[C@@]12O[C@@H]1O[C@H](CO)[C@@H](O)[C@H](O)[C@H]1O [Paeoniflorin, paeoniflorin] |  |  | 105.0% | 107.8% | 106.4% | 96.4% | 102% | 102% | 104% | 98.6% | 104% | 1230 ng·h/mL | 3.5 ± 0.633 h | 905 ± 226 ng/mL | 3.32 h | 1220 ng·h/mL | < 0.767 h | 103% | 98.3% | 105% | Concentration that inhibits phosphorylation of ERK, JNK, IKK [3]: 25 ng/mL; IC50 [4]: 420 µM |
| COc1ccc(-c2coc3cc(O)ccc3c2=O)cc1 [Formononetin, formononetin] | < 0.767 h | 45 (30, 45) min |  |  |  |  |  |  |  |  |  |  |  |  |  | 15.2 ng·h/mL |  |  |  |  | AUC(0-inf) [1]: 18.7 ng·h/mL; half-life [1]: 15.8 ± 1.62 h; Cmax [1]: 6.79 ± 2.18 ng/mL; MRT last [1]: 12.9 h |
| O=C(/C=C/c1ccc(O)cc1)c1ccc(O)cc1O [Isoliquiritigenin, isoliquiritigenin] |  |  | 105.2% | 106.3% | 107.0% | 103% | 102% | 103% | 102% | 103% | 96.2% | 2750 ng·h/mL | 4.88 ± 0.8 h | 337 ± 103 ng/mL | 7.75 h | 2650 ng·h/mL | 3 h | 102% | 94.6% | 102% | Concentration that inhibits NLRP3-dependent IL-1β production ([5]; at both the priming step and the activation step): 1 µM; Concentration that inhibits NLRP3-dependent IL-1β production, converted to mass concentration ([5]; printed as equal to 1 µM): 256 ng/mL; Effect on LPS-induced TLR4/MD2 complex signaling and NF-κB activation [6]: block lipopolysaccharides (LPS)-induced toll-like receptor 4 (TLR4)/MD2 complex signaling and nuclear factor NF-κB activation; Effect on NLRP3-activated ASC oligomerization [7]: inhibit NACHT, LRR and PYD domains-containing protein 3 (NLRP3)-activated apoptosis-associated speck-like protein (ASC) oligomerization |
| COCC12CCC(OC)C34C5CC6(O)C(OC)C(O)C(O)(C5C6OC(=O)c5ccccc5)C(C(OC)C13)C4N(C)C2 (stereo not shown) [Benzoylhypaconine, benzoylhypaconine] |  | 30 (30, 45) min | 106.9% | 109.6% | 92.7% | 105% | 108% | 108% | 105% | 108% | 104% | 76.7 ng·h/mL | 6.37 ± 1.08 h | 35.6 ± 10.2 ng/mL | 6.25 h | 72.1 ng·h/mL | < 0.767 h | 104% | 107% | 104% |  |
